pIC50: −log10 of the molar value. Records with an inconclusive call do not appear. Calls of active or inactive are those of the source.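 Rule for the calls: active = compounds with IC50 under 50 µM in each of two repeat runs and on average; inconclusive = just one of the two runs above 50 µM; inactive = both runs and average above 50 µM.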
What was measured:
[1] = inhibitors of zVAD-triggered L929 necroptosis, potency, dose response, L929 cells, duplicate IC50 (AID 463181); details: L929 zVAD necroptosis rescue, ATP luminescence, 24 h; inhibition of cell death; at 50 µM; stronger effect = higher value
[2] = tested on: L929 zVAD necroptosis rescue, ATP luminescence, 24 h; test: as above

SMILES	inhibition [1] [%]	pIC50 [2]	IC50 [2]
CC(=O)Nc1ccc(/C=N/Nc2nc3ccccc3s2)cc1	70.2	4.73	–
CN(C)S(=O)(=O)c1ccc(Cl)c(NC(=O)CSc2nnnn2-c2ccc(O)cc2)c1	78.6	4.75	–
CC(=O)OC[C@]12CCC(C)=C[C@H]1O[C@@H]1[C@H](O)[C@@H](OC(C)=O)[C@@]2(C)[C@]12CO2	114	> 7.41	–
Cn1nnnc1SCc1ccc(C(=O)Nc2nccs2)cc1	76.4	4.77	–
CCN1CCN(Cc2ccc(NC(=O)c3ccc(C)c(NC(=O)c4nccnc4N)c3)cc2C(F)(F)F)CC1	74	5.84	–
Cc1ccc(NC(=O)CSc2nnnn2-c2ccc3c(c2)OCO3)cc1C	0.243	–	> 20 µM (inactive)
CCc1cccc2c(C(=O)COC(=O)c3ccc(O)cc3)c[nH]c12	1.41	–	> 20 µM (inactive)
COc1cc(/C=N/Nc2ccccn2)ccc1O	91.1	4.83	–
CCN(CC)Cc1cc2[nH]c3c4ccc(Cl)cc4ncc3c2cc1OC	0.811	–	> 20 µM (inactive)
O=C1Nc2ccccc2/C1=C/c1cnc[nH]1	85.9	5.01	–
CCN1CCN(Cc2ccc(NC(=O)c3ccc(C)c(NC(=O)c4csc(-c5ccncc5)n4)c3)cc2C(F)(F)F)CC1	90.1	5.23	–
COc1ccc(N=Cc2c(O)[nH]c3ccccc23)cc1OC	81.8	5.17	–
O=C(C1=NNCC1c1ccccc1)C1CO1 (stereo not drawn)	87.3	4.80	–
O=C(CSc1nnc(NC2CCCCC2)s1)Nc1ccc2c(c1)C(=O)c1ccccc1C2=O	0.754	–	> 20 µM (inactive)
Brc1ccc(COn2ccnc2)cc1	79.8	4.77	–
C[C@@H]1C[C@@H]2O[C@H]2/C=C\C=C\C(=O)Cc2c(Cl)c(O)cc(O)c2C(=O)O1	120	6.43	–
Cc1ccc(/C=N\Nc2nc3ccc(Cl)cc3[nH]2)o1	0.613	–	> 20 µM (inactive)
Clc1ccc(COn2ccnc2)cc1Cl	82.6	4.96	–
COc1cc(N=Cc2c(O)[nH]c3ccccc23)cc(OC)c1OC	89.1	5.15	–
Cc1ccc2[nH]c3c(c2c1)CCc1cn[nH]c1-3	82.2	5.89	–
Nc1ccccc1Nc1cc(-c2ccccc2)[nH]n1	90.9	5.56	–
CCN1C(=O)/C(=C/c2ccc(C)s2)NC1=S	88.7	5.69	–

SMILES	inhibition [1] [%]	pIC50 [2]	IC50 [2]
O=C(OCn1ncc(Br)c(Br)c1=O)c1ccc(F)cc1	8.06	–	> 20 µM (inactive)
Cc1cn(-c2cc(C(=O)Nc3ccc(C)c(NC(=O)C(=O)c4c[nH]c5ccccc45)c3)cc(C(F)(F)F)c2)cn1	1.07	–	> 20 µM (inactive)
COc1ccc(/C=N/Nc2nc3ccccc3s2)cc1O	72.2	4.76	–
Cc1ccc(-c2nc(Nc3ccccc3)n[nH]2)cc1	0.11	–	> 20 µM (inactive)
O=C(Nc1nccs1)c1ccc(S(=O)(=O)NCc2cccs2)cc1	2.91	–	> 20 µM (inactive)
Cc1cnc(NC(=O)c2ccc(OCC3CCCO3)cc2)s1 (stereo not drawn)	74.2	5.07	–
Cc1noc(C)c1/C=N/Nc1ccccn1	81.6	4.77	–
Cn1nc(C(C)(C)C)cc1NC(=O)Nc1cc(Cl)cc(Cl)c1	2.91	–	> 20 µM (inactive)
O=C(/C=C/c1cccc(F)c1)Nc1nccs1	1.43	–	> 20 µM (inactive)
COc1ccc(-n2cnnc2SCC(=O)Nc2cc(C(C)(C)C)nn2-c2ccccc2)cc1	70	5.32	–
O=C(Nc1nccs1)c1ccc(CSc2nnnn2-c2ccccc2)cc1	0.93	–	> 20 µM (inactive)
COc1ccc(/C=N/Nc2ccccn2)cc1OC	80.7	4.79	–
C[C@H]1C[C@@H](C)C(=O)[C@@H]([C@H](O)CC2CC(=O)NC(=O)C2)C1	112	6.01	–
Cc1ccc(C2CC(=O)NC(SCC(=O)Nc3nccs3)=C2C#N)cc1 (stereo not drawn)	80.8	6.60	–
CC(=O)Nc1ccc(Sc2ncccc2C(=O)Nc2ccc(OC(F)(F)F)cc2)cn1	5.08	–	> 20 µM (inactive)
Cc1cc(N/N=C/c2ccncc2)nc2ccccc12	81.6	4.73	–
Cn1c(N)c(C(=O)N/N=C/c2ccccc2)sc1=S	76.3	4.76	–
O=C(Nc1cccc(Cl)c1)N1N=CCC1c1ccccc1 (stereo not drawn)	81.4	4.77	–
Oc1ccc(/C=N/Nc2ccc(C(F)(F)F)cn2)cc1O	87.6	5.38	–
O=C1C=CC(O)(c2cc(=O)c3c(O)cc(O)cc3o2)C=C1	78.5	5.00	–
OCCCNc1nccc(-c2cc(Nc3cccc(Cl)c3)ncn2)n1	82.7	4.97	–
Cc1ccc2c(c1)C(C)CC(C)(C)N2C(=O)NC1CCCCC1 (stereo not drawn)	1.73	–	> 20 µM (inactive)

SMILES	inhibition [1] [%]	pIC50 [2]	IC50 [2]
Clc1ccc2[nH]c3c(c2c1)CCc1cn[nH]c1-3	103	5.58	–
O=C(C1=NNCC1c1ccc(Cl)cc1)C1CO1 (stereo not drawn)	103	5.43	–
Cc1ccc(C(=O)Nc2cccc(C(F)(F)F)c2)cc1Nc1cnccn1	74.3	4.96	–
COc1cc(NC(=O)c2cnc(N)s2)cc(C(=O)Nc2cccc(C(F)(F)F)c2)c1	75.8	4.76	–
CN(CC1CCCO1)S(=O)(=O)c1ccc(C(=O)Nc2nccs2)cc1 (stereo not drawn)	97.5	5.13	–
Cc1[nH]c2ccccc2c1/C=N/Nc1ccccn1	92.7	4.82	–
COc1cc(/C=N/Nc2ccc(C(F)(F)F)cn2)ccc1O	82.3	4.78	–
CCN1CCN(Cc2ccc(NC(=O)c3cc(NC(=O)c4cnn(-c5ccccc5)c4N)cc(OC)c3)cc2C(F)(F)F)CC1	80.3	5.00	–
CCCc1cc(C(=O)Nc2nccs2)cs1	76.6	5.02	–
CCN(CC)CCn1c2ccccc2c2cnc(N)c(C#N)c21	68.7	4.75	–
COc1ccc(/C=C2\N=C(SC)NC2=O)cc1	80.6	5.28	–
C=C1C(=O)[C@@]23[C@H](O)C[C@@H]4C(C)(C)CC[C@H](O)[C@@]4(C)[C@@H]2CC[C@@H]1[C@H]3O	144	5.00	–
O=C(CSc1nnnn1-c1ccc(O)cc1)Nc1cccc(S(=O)(=O)N2CCCC2)c1	86.9	5.23	–
Cc1cnc(NC(=O)c2cc3c(s2)CCCC3)s1	10.4	–	> 20 µM (inactive)
Nc1nnnn1/N=C/C(Br)=C/c1ccccc1	0.0265	–	> 20 µM (inactive)
O=C(CSc1nnnn1-c1ccc2c(c1)OCCO2)Nc1nc2c(s1)CCCC2	0.775	–	> 20 µM (inactive)
COC(=O)c1ccn(Cc2ccccc2Cl)n1	81.2	4.79	–
c1ccc2c3c([nH]c2c1)-c1[nH]ncc1CC3	78.5	6.71	–
O=C(CCl)Nc1cc(SCC(O)CO)cc([N+](=O)[O-])c1 (stereo not drawn)	94.4	4.84	–
COc1cc(/C=N/Nc2nc3ccccc3s2)ccc1OC(=O)c1ccccc1F	1.24	–	> 20 µM (inactive)

— PubChem BioAssay AID463181 (University of Pittsburgh Molecular Library Screening Center, 2010)
